Test: Skin irritation test (24 hour patch test)
Set-up: species or system human
Conditions: in vivo; for Average skin irritation score: human, 24 h
Method: The patch is applied to the upper part of the back of each panel, using 20 μL of the test ingredient on an IQ chamber (Chemotechique, […]). The patch is removed after 24 hours of application and a first evaluation is conducted in 30 more minutes. After 24 hours, a second evaluation is carried out. To determine the severity of the skin irritation of each specimen, a weighted grade is applied according to the severity of the positive reaction on the skin to calculate the average skin irritation score as given by the following Equation and determine the severity of the skin irritation from the specimen. […] Mild irritation Score≥5: Severe irritation

Row | Compound | Average skin irritation score (5 %) | Skin irritation, result in words | Average skin irritation score (1 %) | Average skin irritation score (4 %)
1 | CCCCCCCC(=O)OCC(O)CO (stereo not drawn) [Glyceryl caprylate, glyceryl caprylate] | 0.94 | almost no irritation | – | –
2 | COc1ccc(C(=O)O)cc1 [p-anisic acid] | – | almost no irritation | 0.94 | –
3 | C=CCCCCCCCCC(=O)OCC(O)CO (stereo not drawn) [Glyceryl undecylenate, glyceryl undecylenate] | – | almost no irritation | – | 0.00

From patent US10172820B2, “Skin preparation composition for external use having excellent antiseptic ability” (AMOREPACIFIC CORPORATION, priority 2011, dated 2019)
